Data as given in ChEMBL document CHEMBL1126877, “Synthesis and anticonvulsant activities of alpha-heterocyclic alpha-acetamido-N-benzylacetamide derivatives” (J Med Chem, 1993).

Legend:
Mus musculus [1] = organism: Mus musculus; test: Effective dose required for maximal electroshock (MES)-induced seizures in mice.; type: functional
[2] = Protective index (TD50/ED50); type: functional
[3] = Neurologic toxicity determined using rotarod test in mice; type: organism-based; conditions: mouse, in vivo
[4] = Neurologic toxicity determined using horizontal screen test in mice in experiment 2; type: organism-based; conditions: mouse, in vivo
[5] = Neurologic toxicity determined using horizontal screen test in mice in experiment 1; type: organism-based; conditions: mouse, in vivo
[6] = (§1) Neurologic toxicity determined using horizontal screen test in mice; type: organism-based; conditions: mouse, in vivo
Mus musculus [7] = organism: Mus musculus; test: as §1; type: organism-based; conditions: in vivo
Mus musculus [8] = organism: Mus musculus; test: Effective dose required for maximal electroshock (MES)-induced seizures in mice in experiment 1; type: functional
Mus musculus [9] = organism: Mus musculus; test: Effective dose required for maximal electroshock (MES)-induced seizures in mice in experiment 2; type: functional

Q: Which ED50 (Mus musculus [1]; Mus musculus, read-out: ED50) does the source give for `CC(=O)NC(C(=O)NCc1ccccc1)n1ccnc1` (centres undefined) here?
A: > 100 mg/kg

Q: For `C/C(S)=N\C(C(=O)NCc1ccccc1)c1ccco1` (centres undefined), which ED50 (Mus musculus [1]; Mus musculus, read-out: ED50) is on record?
A: 18.4 mg/kg

Q: Which results are given for `CC(=O)NC(C(=O)NCc1ccccc1)c1nccs1` (centres undefined)?
A: PI [2]: 5.7; ED50 (Mus musculus [1]; Mus musculus, read-out: ED50): 12.1 mg/kg; TD50 [3]: 69.1 mg/kg

Q: Which TD50 [4] does the source give for `CC(=O)NC(C(=O)NCc1ccccc1)c1ccc[nH]1` (centres undefined) here?
A: < 100 mg/kg

Q: What about the TD50 [5] of the same compound?
A: > 30 mg/kg

Q: For `CC(=O)NC(C(=O)NCc1ccccc1)c1ncco1` (centres undefined), which PI [2] is on record?
A: 3.7

Q: What about the ED50 (Mus musculus [1]; Mus musculus, read-out: ED50) of the same compound?
A: 10.4 mg/kg

Q: And the TD50 [3]?
A: 38.6 mg/kg

Q: With `CC(=O)NC(C(=O)NCc1ccncc1)c1ccco1` (centres undefined) as the compound, how does the ED50 (Mus musculus [1]; Mus musculus, read-out: ED50) read?
A: > 100 mg/kg

Q: Which TD50 [6] does the source give for `CC(=O)NC(C(=O)NCc1ccccc1)c1ccccc1` (centres undefined) here?
A: > 40 mg/kg

Q: For `CC(=O)N[C@H](C(=O)NCc1ccc(C(F)(F)F)cc1)c1ccco1`, which ED50 (Mus musculus [1]; Mus musculus, read-out: ED50) is on record?
A: 22.8 mg/kg

Q: Which ED50 (Mus musculus [1]; Mus musculus, read-out: ED50) does the source give for `CC(=O)N[C@H](C(=O)NCc1ccc(C)cc1)c1ccco1` here?
A: 43.6 mg/kg

Q: With `CC(=O)NC(C(=O)NNc1ccccn1)c1ccco1` (centres undefined) as the compound, how does the ED50 (Mus musculus [1]; Mus musculus, read-out: ED50) read?
A: > 100 mg/kg

Q: With `CC(=O)NC(C(=O)NCc1ccc(F)cc1)c1ccco1` (centres undefined) as the compound, how does the PI [2] read?
A: 11.3

Q: With `CC(=O)N[C@@H](C(=O)NCc1ccccc1)c1ccco1` as the compound, how does the PI [2] read?
A: 7.2

Q: And the ED50 (Mus musculus [1]; Mus musculus, read-out: ED50)?
A: 3.3 mg/kg

Q: With `C/C(S)=N/C(/C(S)=N/Cc1ccccc1)c1ccco1` (centres undefined) as the compound, how does the ED50 (Mus musculus [1]; Mus musculus, read-out: ED50) read?
A: > 100 mg/kg

Q: What does the source list for `CC(=O)NC(C(=O)NCc1ccccc1)c1ccco1` (centres undefined)?
A: TD50 [6]: ~40 mg/kg; PI [2]: 3.9

Q: For `CC(=O)NC(C(=O)NCc1ccccc1)n1cccc1` (centres undefined), which ED50 (Mus musculus [1]; Mus musculus, read-out: ED50) is on record?
A: 80.2 mg/kg

Q: With `CC(=O)NC(C(=O)NCc1ccccc1)c1nc[nH]n1` (centres undefined) as the compound, how does the ED50 (Mus musculus [1]; Mus musculus, read-out: ED50) read?
A: > 100 mg/kg

Q: Which ED50 (Mus musculus [1]; Mus musculus, read-out: ED50) does the source give for `CC(=O)NC(C(=O)NCc1cccnc1)c1ccco1` (centres undefined) here?
A: ~30 mg/kg

Q: Which TD50 [6] does the source give for `CC(=O)N[C@@H](C(=O)NCc1ccc(F)cc1)c1ccco1` here?
A: 14.4 mg/kg

Q: And the PI [2]?
A: 4.1

Q: What about the ED50 (Mus musculus [1]; Mus musculus, read-out: ED50) of the same compound?
A: 3.5 mg/kg

Q: With `CC(=O)NC(C(=O)NCc1ccccc1)n1cnnn1` (centres undefined) as the compound, how does the ED50 (Mus musculus [1]; Mus musculus, read-out: ED50) read?
A: > 300 mg/kg

Q: Which ED50 (Mus musculus [1]; Mus musculus, read-out: ED50) does the source give for `CC(=O)NC(C)(C(=O)NCc1ccccc1)c1ccco1` (centres undefined) here?
A: > 300 mg/kg

Q: Which ED50 (Mus musculus [1]; Mus musculus, read-out: ED50) does the source give for `CC(=O)NC(C(=O)NCc1ccc[n+]([O-])c1)c1ccco1` (centres undefined) here?
A: ~30 mg/kg

Q: Which TD50 (Mus musculus [7]) does the source give for `CC(=O)N[C@H](C(=O)NCc1ccccc1)c1ccco1` (stereo in doubt; 4) [listing 1 of 2 here] here?
A: ~ 40 mg kg-1

Q: And the ED50 (Mus musculus [1])?
A: 10.3 mg/kg

Q: For `CC(=O)NC(C(=O)NCc1ccccc1)n1cccn1` (centres undefined), which ED50 (Mus musculus [1]; Mus musculus, read-out: ED50) is on record?
A: 16.5 mg/kg

Q: With `CC(=O)NC(C(=O)NCc1ccccc1)c1ncon1` (centres undefined) as the compound, how does the ED50 (Mus musculus [8]) read?
A: > 100 mg/kg

Q: What about the ED50 (Mus musculus [9]) of the same compound?
A: < 300 mg/kg

Q: Which TD50 [4] does the source give for `CC(=O)NC(C(=O)NCc1ccccc1)c1cccs1` (centres undefined) here?
A: < 100 mg/kg

Q: What about the TD50 [5] of the same compound?
A: > 30 mg/kg

Q: With `CC(=O)N[C@H](C(=O)NCc1ccccc1)c1ccco1` (stereo in doubt; 4) [listing 2 of 2 here] as the compound, how does the PI [2] read?
A: 3.9

Q: For `CC(=O)NC(C(=O)NCc1ccccc1)c1ccsc1` (centres undefined), which TD50 [6] is on record?
A: > 100 mg/kg

Q: For `CC(=O)NC(C(=O)NCc1ccccc1)n1cncn1` (centres undefined), which ED50 (Mus musculus [8]) is on record?
A: > 30 mg/kg

Q: What about the ED50 (Mus musculus [9]) of the same compound?
A: < 100 mg/kg

Q: With `CC(=O)N[C@H](C(=O)NCc1ccccc1)c1ccco1` (stereo in doubt; (S)-4) as the compound, how does the TD50 (Mus musculus [7]) read?
A: > 200 mg/kg

Q: And the ED50 (Mus musculus [1])?
A: >25 mg/kg

Q: For `CC(=O)NC(C(=O)NCc1cc[n+]([O-])cc1)c1ccco1` (centres undefined), which ED50 (Mus musculus [1]; Mus musculus, read-out: ED50) is on record?
A: > 100 mg/kg

Q: Which ED50 (Mus musculus [1]; Mus musculus, read-out: ED50) does the source give for `CC(=O)NC(C(=O)NCc1ccccc1)C1CCCO1` (centres undefined) here?
A: 89.8 mg/kg

Q: For `CC(=O)NC(C(=O)NCc1ccccc1)c1c[nH]cn1` (centres undefined), which ED50 (Mus musculus [1]; Mus musculus, read-out: ED50) is on record?
A: > 100 mg/kg

Q: With `CC(=O)NC(C(=O)NCc1ccccc1)c1nnn[nH]1` (centres undefined) as the compound, how does the ED50 (Mus musculus [8]) read?
A: > 30 mg/kg

Q: And the ED50 (Mus musculus [9])?
A: < 100 mg/kg

Q: Which ED50 (Mus musculus [1]; Mus musculus, read-out: ED50) does the source give for `CC(=O)NC(C(=O)NCc1ccccc1)c1ncc[nH]1` (centres undefined) here?
A: > 100 mg/kg
